Legend:
[1] = system: long chain fatty acid oxidation; conditions: oral supplementation, slightly overweight adults; cited from earlier work
[2] = system: adults; conditions: 1200 mg for a 60 kg person, 1993 GRAS expert committee; cited from earlier work
[3] = Solubility of L-carnitine in water (100-2000 mg per 16 oz); type: physicochemical; conditions: about 100 mg to about 2000 mg per 16 fluid ounces of water
Description: A pre-measured amount of L-carnitine was added into water at a final concentration range from about 100 mg to about 2000 mg per 16 fluid ounces (oz) of water.

[4] = system: long chain fatty acid oxidation; conditions: oral supplementation, healthy subjects; cited from earlier work
[5] = system: cells (mitochondria); conditions: cited from earlier work

Compound	long chain fatty acid oxidation [1]	amount that can be safely ingested by adults [2]	solubility in the water [3]	long chain fatty acid oxidation as measured by 13CO2 exhalation [4]	rate at which cells (mitochondria) burned fat [5]
C[N+](C)(C)C[C@H](O)CC(=O)[O-].O=C(O)C(O)C(O)C(=O)O [L-Carnitine L-Tartrate]	increased long chain fatty acid oxidation	20 mg/kg/day			
C[N+](C)(C)C[C@H](O)CC(=O)[O-].O=C([O-])CC(O)(CC(=O)[O-])C(=O)[O-].O=C([O-])CC(O)(CC(=O)[O-])C(=O)[O-].[Mg+2].[Mg+2].[Mg+2] [L-Carnitine Magnesium Citrate]		20 mg/kg/day			
C[N+](C)(C)C[C@H](O)CC(=O)[O-] [L-carnitine]		20 mg/kg/day	completely soluble	improved long chain fatty acid oxidation	increased the rate
